# Experimental data reported in EP3958980B1, “TARGETED NOVEL TRIAZOLOTHIADIAZINE DERIVATIVES FOR THE TREATMENT OF LUNG CANCER” (Anadolu Universitesi, priority 2020, dated 2021).
# Several values for one entry are separate records, joined by “and”; a condition that tells them apart may be missing. Equal entries are not always repeated.
# Key:
# [1] = tested on: kidney fibroblast (BHK-21) cells; settings: cited from earlier work
# [2] = tested on: CCD-19Lu normal lung fibroblast cells; experiment: MTT assay, in vitro cytotoxic activity on CCD-19Lu; format: cell-based; settings: 24 hour incubation; for IC50: Homo sapiens, CCD 19Lu, read-out: IC50 values (µg/mL) CCDLul9 cell line
# Protocol: (§1) The in vitro cytotoxic effects of the compounds were determined with the MTT assay. For this purpose, MTT test was performed using A549 and CCD-19Lu cell lines. After the cell lines used in the invention were centrifuged following taking them out from liquid nitrogen (-196 °C), the cells were cultured in a CO2 incubator comprising 5% CO2 at 37 °C in flasks containing 10% fetal bovine serum (FBS), where CCD-19Lu cells were cultured with Dulbecco's Modified Eagle's Medium (DMEM) and A549 cells were cultured with Roswell Park Memorial Institute (RPMI). The cells that reach the sufficient number for the assay, were seeded to 96 well plates such that 2×10^3 cells were placed in each well and at the same time, components at concentrations of 1-500 µg/mL were added to cells and they were incubated at 37 °C. At the end of the 24 hour incubation period, the MTT powder (5 mg/mL in 1 × phosphate buffered saline (PBS)) was added to each well (20 µL). After a 2-4 h period under the same conditions, the medium was removed from the plate and 100 µL of DMSO was added to each well to dissolve the dye and kept for 10 minutes. Then the plates were read at a wavelength of 540 nm using ELx808-IU Bio-Tek plate reader. The control cell viability which was not treated with the components was accepted to be 100% and the viability rates of the cells were expressed as %. […] According to the results obtained, the dose range was extended until the IC50 value was determined.
# MTT assay is a frequently used method which measures the cytotoxic effects of the compounds on the cells by converting the yellow colored MTT stain into purple colored formazan crystals via the mitochondrial succinate dehydrogenase activity. In the cytotoxic activity tests of the compounds, A549 lung adenocarcinoma and CCDLu19 normal lung fibroblast cell lines were used.
# [3] = tested on: A549 human lung adenocarcinoma cells; experiment: MTT assay, in vitro cytotoxic activity on A549; format: cell-based; settings: Homo sapiens, A549, 24 hour incubation, read-out: IC50 values (µg/mL) A549 cell line
# Protocol: as §1, with “determined. MTT assay is a frequently used method which measures the cytotoxic effects of the compounds on the cells by converting the yellow colored MTT stain into purple colored formazan crystals via the mitochondrial succinate dehydrogenase activity. In the cytotoxic activity tests of the compounds, A549 lung adenocarcinoma and CCDLu19 normal lung fibroblast cell lines were used.” for “determined.”
# [4] = tested on: kidney cancer (OU-31) cell line; set-up: concentration or dose not given beside the values; settings: cited from earlier work
# Akt = Akt colorimetric in cell ELISA in A549 cells; format: cell-based, human; settings: 24 hours
# Protocol: After 10.000 cells were seeded in the wells, they were kept in the incubator for 24 hours. […] Briefly, the medium was removed from the wells and 100 µL of 4% formaldehyde was added. The plate was incubated in a fume hood for 15 minutes. Formaldehyde was removed and the plate was washed twice with 1X […] (TBS) such as to be 100 µL/well. 1X TBS was removed and 100 µL 1X permeabilization solution was added to each well and it was kept at room temperature for 15 minutes. After the 1X permeabilization solution was removed, the wells were washed with 100 µL 1X TBS once. 1X TBS was removed and 100 µL quenching solution was added to each well and it was kept at room temperature for 20 minutes. Afterwards, this solution was removed. The plate was washed 1 time with 1X TBS and 100 µL blocking solution was added to the wells and it was kept at room temperature for 30 minutes. At the end of this period, the blocking solution was removed and 50 µL primary antibody was added to the wells. The plate was sealed with a cover and it was incubated overnight at 4 °C. The primary antibody was removed and the plate wells were washed 3 times with 100 µL 1X washing solution. After the washing solution was removed, 100 µL diluted horseradish peroxidase (HRP) conjugate was added and it was incubated at room temperature for 30 minutes. Later on this conjugate was removed and 100 µL 3,3',5,5'-tetramethylbenzidine (TMB) […] was added to each well and the absorbance values were read at 450 nm for 30 minutes. The experiment was carried out in triplicate. The values of the blank wells were subtracted from the values of the untreated control and treated cells. The Akt activity% was determined as the relative absorbance of treated versus untreated control cells.
Structure (SMILES),IC50 [2],IC50 [3],other results
"Cc1ccc(C2=Nn3c(nnc3-c3ccncc3)SC2)cc1 [3-(pyridine-4-yl)-6-(p-tolyl)-7H-[1,2,4]triazolo[3,4-b][1,3,4]thiadiazine]",,,inhibition [1]: 72.6%
"COc1ccc(C2=Nn3c(CCc4ccc5c(c4)OCO5)nnc3SC2)cc1 [Compound 7, 3-[2-(1,3-Benzodioxole-5-yl)ethyl]-6-(4-methoxyphenyl)-7H-[1,2,4]triazolo[3,4-b] [1,3,4]thiadiazine]",44.3 ± 1.15 µg/mL,45.7 ± 5.51 µg/mL,
"Brc1ccc(C2=Nn3c(CCc4ccc5c(c4)OCO5)nnc3SC2)cc1 [Compound 6, 3-[2-(1,3-Benzodioxole-5-yl)ethyl]-6-(4-bromophenyl)-7H-[1,2,4]triazolo[3,4-b] [1,3,4]thiadiazine]",< 3.9 µg/mL,307 ± 58.6 µg/mL,
"N#Cc1ccc(C2=Nn3c(CCc4ccc5c(c4)OCO5)nnc3SC2)cc1 [Compound 3, 3-[2-(1,3-Benzodioxole-5-yl)ethyl]-6-(4-cyanophenyl)-7H-[1,2,4]triazolo[3,4-b] [1,3,4]thiadiazine]",> 500 µg/mL,> 500 µg/mL,
"Cc1ccc(C2=Nn3c(CCc4ccc5c(c4)OCO5)nnc3SC2)cc1 [Compound 8, 3-[2-(1,3-Benzodioxole-5-yl)ethyl]-6-(4-methylphenyl)-7H-[1,2,4] triazolo [3,4-b] [1,3,4]thiadiazine]",14.7 ± 6.43 µg/mL,> 500 µg/mL,
"Clc1cccc(C2=Nn3c(CCc4ccc5c(c4)OCO5)nnc3SC2)c1 [Compound 13, 3-[2-(1,3-Benzodioxole-5-yl)ethyl]-6-(3-chlorophenyl)-7H-[1,2,4]triazolo[3,4-b][1,3,4]thiadiazine]",> 500 µg/mL,> 500 µg/mL,
"c1csc(-c2ccc(C3=Nn4c(CCc5ccc6c(c5)OCO6)nnc4SC3)cc2)c1 [Compound 15, 3-[2-(1,3-Benzodioxole-5-yl)ethyl] -6-(4-(thiophen-2-yl)phenyl)-7H-[1,2,4] triazolo [3,4-b] [1,3,4]thiadiazine]",< 3.9 µg/mL,4 ± 0.2 µg/mL,IC50 values (µg/mL) CCDLul9 cell line [2]: <3.90 µg/mL
"O=C(CSc1nnc2n1N=C(c1ccc(F)cc1)CS2)c1ccc(F)cc1 [1-(4-fluorophenyl)-2-((6-(4-fluorophenyl)-7H-[1,2,4]triazolo[3,4-b][1,3,4]thiadiazine-3-yl)thio)ethanone]",,,growth [4]: 47.42%; inhibition [4]: 52.58%
"O=[N+]([O-])c1ccc(C2=Nn3c(CCc4ccc5c(c4)OCO5)nnc3SC2)cc1 [Compound 2, 3-[2-(1,3-Benzodioxole-5-yl)ethyl]-6-(4-nitrophenyl)-7H-[1,2,4]triazolo[3,4-b][1,3,4]thiadiazine]",3.93 ± 0.06 µg/mL,380 ± 70.7 µg/mL,
"CCn1c(-c2nonc2N)nc2c(C#CC(C)(C)O)ncc(OC[C@H]3CCCNC3)c21 [GSK690693, reference compound]",,6.75 ± 1.06 µg/mL,Akt Inhibition% (Akt; IC50/2 concentration (9: 2.88; 11: 0.37; 12: 0.40; 14: 1.32; GSK690693: 3.34; Cisplatin: 11.50 µg/mL)): 60.56±3.04%; Akt Inhibition% (Akt; IC50/4 concentration (9: 1.44; 11: 0.18; 12: 0.20; 14: 0.66; GSK690693: 1.69; Cisplatin: 5.75 µg/mL)): 59.23±9.77%; Akt Inhibition% (Akt; IC50 concentration (9: 5.75; 11: 0.73; 12: 0.80; 14: 2.63; GSK690693: 6.75; Cisplatin: 23.00 µg/mL)): 61.67% and 61.67±1.21%
"Fc1ccc(C2=Nn3c(CCc4ccc5c(c4)OCO5)nnc3SC2)cc1 [Compound 4, 3-[2-(1,3-Benzodioxole-5-yl)ethyl]-6-(4-fluorophenyl)-7H-[1,2,4]triazolo[3,4-b] [1,3,4]thiadiazine]",> 500 µg/mL,325 ± 35.4 µg/mL,
"c1ccc2cc(C3=Nn4c(CCc5ccc6c(c5)OCO6)nnc4SC3)ccc2c1 [Compound 10, 3-[2-(1,3-Benzodioxole-5-yl)ethyl]-6-(naphthalene-2-yl)-7H-[1,2,4]triazolo [3,4-b][1,3,4]thiadiazine]",< 3.9 µg/mL,4.1 ± 0.14 µg/mL,IC50 values (µg/mL) CCDLul9 cell line [2]: <3.90 µg/mL
"Clc1ccc(C2=Nn3c(CCc4ccc5c(c4)OCO5)nnc3SC2)cc1 [Compound 5, 3-[2-(1,3-Benzodioxole-5-yl)ethyl]-6-(4-chlorophenyl)-7H-[1,2,4]triazolo[3,4-b] [1,3,4]thiadiazine]",< 3.9 µg/mL,> 500 µg/mL,
"c1ccc(C2=Nn3c(CCc4ccc5c(c4)OCO5)nnc3SC2)cc1 [Compound 1, 3-[2-(1,3-Benzodioxole-5-yl)ethyl]-6-phenyl-7H-[1,2,4]triazolo[3,4-b][1,3,4]thiadiazine]",< 3.9 µg/mL,103 ± 11.5 µg/mL,
